Data on two compounds can be found in patent US20080146617A1, “Methods of treating inflammatory diseases” (Roche Palo Alto LLC, priority 2006, published 2008).

Like-named read-outs stand apart in the source and are kept apart here.

For one experiment, the target named is T1, CLK2 (Homo sapiens, UniProt P49760).
T1 construct: purchased Ambit Biosciences (San Diego, Calif.)
Nature of the experiment: KinomeScan kinase profiling. It counts as binding.

A further experiment addresses T2, FGFR3 (Homo sapiens, UniProt P22607).
T2 construct: purchased Ambit Biosciences (San Diego, Calif.)
In words: KinomeScan kinase profiling. It counts as binding.

The target of another experiment is T3, CSNK1E (Homo sapiens, UniProt P49674).
T3 construct: purchased Ambit Biosciences (San Diego, Calif.)
T3 sequence (P49674 whole entry): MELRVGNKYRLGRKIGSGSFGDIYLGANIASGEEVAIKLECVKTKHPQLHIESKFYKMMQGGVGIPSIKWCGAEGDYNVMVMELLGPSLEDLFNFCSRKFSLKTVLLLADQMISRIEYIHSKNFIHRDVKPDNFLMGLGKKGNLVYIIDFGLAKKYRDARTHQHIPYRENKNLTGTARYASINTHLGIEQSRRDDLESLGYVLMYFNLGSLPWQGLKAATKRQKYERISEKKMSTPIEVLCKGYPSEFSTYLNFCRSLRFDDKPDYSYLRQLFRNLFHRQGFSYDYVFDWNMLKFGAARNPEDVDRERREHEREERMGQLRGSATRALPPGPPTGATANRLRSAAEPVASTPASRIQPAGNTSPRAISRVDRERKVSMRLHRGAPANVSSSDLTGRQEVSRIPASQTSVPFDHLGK
Nature of the experiment: KinomeScan kinase profiling. The format is binding.

Another experiment has as its target T4, LCK (Homo sapiens, UniProt P06239).
T4 construct: purchased Ambit Biosciences (San Diego, Calif.)
In words: KinomeScan kinase profiling. It counts as binding.

The next experiment addresses T5, BRAF (Homo sapiens, UniProt P15056).
T5 construct: purchased Ambit Biosciences (San Diego, Calif.)
Nature of the experiment: KinomeScan kinase profiling. The format is binding.

The target in a further experiment is T6, STK4 (Homo sapiens, UniProt Q13043).
T6 construct: purchased Ambit Biosciences
T6 sequence (Q13043 whole entry): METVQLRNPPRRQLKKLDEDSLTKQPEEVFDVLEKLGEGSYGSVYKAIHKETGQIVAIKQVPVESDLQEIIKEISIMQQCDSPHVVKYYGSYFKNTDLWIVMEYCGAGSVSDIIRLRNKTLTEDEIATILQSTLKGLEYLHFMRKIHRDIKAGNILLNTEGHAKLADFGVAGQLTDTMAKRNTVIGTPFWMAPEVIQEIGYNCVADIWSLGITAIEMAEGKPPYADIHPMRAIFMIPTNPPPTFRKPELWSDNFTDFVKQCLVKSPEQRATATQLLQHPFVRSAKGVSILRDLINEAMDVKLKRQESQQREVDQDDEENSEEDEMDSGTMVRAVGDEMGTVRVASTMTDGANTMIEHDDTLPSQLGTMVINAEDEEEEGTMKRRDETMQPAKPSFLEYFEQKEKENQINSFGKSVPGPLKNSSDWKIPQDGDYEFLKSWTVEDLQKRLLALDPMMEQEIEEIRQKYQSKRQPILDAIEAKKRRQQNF
Nature of the experiment: KinomeScan kinase profiling. The format is binding.

Another experiment has as its target T7, PAK4 (Homo sapiens, UniProt O96013).
T7 construct: purchased Ambit Biosciences (San Diego, Calif.)
Nature of the experiment: KinomeScan kinase profiling. It counts as binding.

A further experiment has as its target T8, PTK6 (Homo sapiens, UniProt Q13882).
T8 construct: purchased Ambit Biosciences
In words: KinomeScan kinase profiling. The format is binding.

For a further experiment, the target named is T9, BRAF(V600E) (Homo sapiens, UniProt P15056, V600E).
T9 construct: purchased Ambit Biosciences (San Diego, Calif.)
T9 sequence (P15056 whole entry V600E): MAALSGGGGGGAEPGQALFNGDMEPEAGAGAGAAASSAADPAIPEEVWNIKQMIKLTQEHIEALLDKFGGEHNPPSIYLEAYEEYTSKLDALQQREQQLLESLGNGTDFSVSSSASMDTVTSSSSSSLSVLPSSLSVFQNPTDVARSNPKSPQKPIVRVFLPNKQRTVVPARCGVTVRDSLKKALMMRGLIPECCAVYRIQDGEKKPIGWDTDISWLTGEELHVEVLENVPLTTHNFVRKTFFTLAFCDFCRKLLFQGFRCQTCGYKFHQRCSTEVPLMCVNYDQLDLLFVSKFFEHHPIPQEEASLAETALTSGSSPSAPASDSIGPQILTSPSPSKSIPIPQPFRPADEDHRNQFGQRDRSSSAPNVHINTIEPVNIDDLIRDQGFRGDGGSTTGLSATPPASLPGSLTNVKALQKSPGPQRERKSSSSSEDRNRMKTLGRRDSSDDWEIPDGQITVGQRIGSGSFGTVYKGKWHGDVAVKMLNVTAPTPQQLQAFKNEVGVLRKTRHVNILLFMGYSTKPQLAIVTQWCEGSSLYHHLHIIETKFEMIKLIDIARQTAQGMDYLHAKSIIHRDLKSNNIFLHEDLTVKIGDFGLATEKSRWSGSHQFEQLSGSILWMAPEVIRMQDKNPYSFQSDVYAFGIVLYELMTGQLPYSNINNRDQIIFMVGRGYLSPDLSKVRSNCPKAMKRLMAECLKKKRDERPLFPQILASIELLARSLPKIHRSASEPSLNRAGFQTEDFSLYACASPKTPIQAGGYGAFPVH
In words: KinomeScan kinase profiling. It counts as binding.

Experiment [1] relates to IL-8 production in neutrophils. Nature of the experiment: Neutrophil assay: IL-8 production after stimulation by inflammatory agents. It counts as cell-based. The conditions noted are these: human neutrophils stimulated by inflammatory agents, FIG. 2. From the text:
(§1) Selective CK1δ, CK1ε or CK1δ-CK1ε inhibitors can be tested for their antiinflammatory effects using a variety of in vitro and in vivo tests that are well known in the art. One such in vitro test involves the application of the inhibitor to human neutrophils to observe whether the induction of inflammatory cytokines, such as IL-8, by tumor necrosis factor (TNF) or lipopolysaccharide (LPS) can be reduced. This test is further described in Example 2. An example of an in vivo test, as described in Example 3, is the air pouch model of inflammatory synovitis in mice in which the inhibitors are tested for their blockade of neutrophil influx as well as of inflammatory cytokine accumulation.
The Histopaque 1077 and 1119 gradient density centrifugation method (Sigma-Aldrich) was used to isolate granulocytes from human blood. The granulocytes were recovered from the 1077/1119 interphase, washed twice with PBS. The red blood cells were lysed with PureGene red cell lysis buffer (Gentra Biosystems). The cells were washed again and resuspended in growth media (RPMI, 10% FBS, β-mercaptoethanol, Pen/Strep/glutamine and sodium pyruvate) at a density of 1 to 5 million per ml. […] The supernatant was analyzed for cytokine production (Luminex human 22-plex assay) and the cells were lysed for RNA production and analysis.

In another experiment the test system is inflammatory synovitis. Nature of the experiment: Air pouch synovitis model. The format is in vivo, Balbc/J mice. To be noted: 1 μg LPS, FIG. 3.
Source text: as §1
Adult Balbc/J mice were purchased from Charles River Labs and housed and utilized according IACUC protocols and standards. The airpouch was inflated on the dorsal surface of each mouse with 3 ml of air, after light anesthesia with CO2/O2 mix. Three days later each pouch was re-inflated with 3 mls of air. After an additional three days, the pouches were injected with vehicle or compound (normally in 0.1% DMSO in PBS) in 1 ml per pouch. After 20 to 30 minutes, each pouch received 1 μg of LPS or control (PBS). The animals were euthanized four to six hours later. The pouches were flushed with 2 ml of PBS, the cells were then collected, counted and normalized for volume recovered. The fluid recovered was analyzed for cytokine production (Luminex Mouse 21-plex assay). The cells were lysed for RNA or protein analysis.

T1 sequence (P49760 whole entry): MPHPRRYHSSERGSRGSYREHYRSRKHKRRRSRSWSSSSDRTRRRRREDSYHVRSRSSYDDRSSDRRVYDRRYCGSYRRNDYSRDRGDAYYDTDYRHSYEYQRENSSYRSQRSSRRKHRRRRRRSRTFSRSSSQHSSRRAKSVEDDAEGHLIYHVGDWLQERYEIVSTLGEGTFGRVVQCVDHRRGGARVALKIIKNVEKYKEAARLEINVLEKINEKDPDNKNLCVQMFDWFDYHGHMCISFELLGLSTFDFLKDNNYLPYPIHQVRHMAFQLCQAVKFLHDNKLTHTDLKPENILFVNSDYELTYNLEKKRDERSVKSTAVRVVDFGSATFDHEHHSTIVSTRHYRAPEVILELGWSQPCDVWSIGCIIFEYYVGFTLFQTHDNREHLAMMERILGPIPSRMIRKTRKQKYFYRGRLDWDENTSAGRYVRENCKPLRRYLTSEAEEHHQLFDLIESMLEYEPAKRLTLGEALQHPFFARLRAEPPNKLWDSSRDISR
T2 sequence (P22607 23-806): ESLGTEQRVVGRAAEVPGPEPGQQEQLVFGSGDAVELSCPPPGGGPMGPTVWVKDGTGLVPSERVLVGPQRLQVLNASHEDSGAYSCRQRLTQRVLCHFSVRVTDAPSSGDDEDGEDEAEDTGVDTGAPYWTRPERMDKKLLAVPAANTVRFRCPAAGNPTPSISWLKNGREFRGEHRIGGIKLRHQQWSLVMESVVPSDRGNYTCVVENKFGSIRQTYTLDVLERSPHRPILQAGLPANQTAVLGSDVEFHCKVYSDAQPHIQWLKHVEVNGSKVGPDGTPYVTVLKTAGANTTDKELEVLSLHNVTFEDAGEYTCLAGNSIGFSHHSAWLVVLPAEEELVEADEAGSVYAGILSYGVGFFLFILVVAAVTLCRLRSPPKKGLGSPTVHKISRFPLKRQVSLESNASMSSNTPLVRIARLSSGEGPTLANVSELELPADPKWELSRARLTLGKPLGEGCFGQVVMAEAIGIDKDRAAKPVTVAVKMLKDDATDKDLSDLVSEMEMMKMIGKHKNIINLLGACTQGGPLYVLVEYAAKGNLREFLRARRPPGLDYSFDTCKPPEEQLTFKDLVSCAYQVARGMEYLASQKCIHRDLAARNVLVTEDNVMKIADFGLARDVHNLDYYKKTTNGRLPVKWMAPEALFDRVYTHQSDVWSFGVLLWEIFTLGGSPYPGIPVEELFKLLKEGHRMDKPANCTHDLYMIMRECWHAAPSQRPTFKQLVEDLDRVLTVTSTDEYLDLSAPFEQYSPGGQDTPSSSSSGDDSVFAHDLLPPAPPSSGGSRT
T4 sequence (P06239 whole entry): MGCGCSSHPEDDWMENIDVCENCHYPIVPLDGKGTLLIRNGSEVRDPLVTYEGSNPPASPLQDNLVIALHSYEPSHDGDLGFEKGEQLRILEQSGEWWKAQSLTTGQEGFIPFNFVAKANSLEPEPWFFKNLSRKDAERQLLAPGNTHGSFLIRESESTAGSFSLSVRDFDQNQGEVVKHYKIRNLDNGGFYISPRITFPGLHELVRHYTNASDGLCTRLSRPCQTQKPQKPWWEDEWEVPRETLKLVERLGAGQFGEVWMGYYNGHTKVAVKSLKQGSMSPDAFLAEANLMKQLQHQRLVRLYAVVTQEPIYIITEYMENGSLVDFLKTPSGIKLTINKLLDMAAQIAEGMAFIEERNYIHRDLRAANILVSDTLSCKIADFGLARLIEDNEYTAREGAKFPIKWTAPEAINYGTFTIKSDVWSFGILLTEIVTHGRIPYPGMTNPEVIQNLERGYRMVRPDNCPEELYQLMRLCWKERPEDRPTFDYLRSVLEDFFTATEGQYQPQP
T7 sequence (O96013 whole entry): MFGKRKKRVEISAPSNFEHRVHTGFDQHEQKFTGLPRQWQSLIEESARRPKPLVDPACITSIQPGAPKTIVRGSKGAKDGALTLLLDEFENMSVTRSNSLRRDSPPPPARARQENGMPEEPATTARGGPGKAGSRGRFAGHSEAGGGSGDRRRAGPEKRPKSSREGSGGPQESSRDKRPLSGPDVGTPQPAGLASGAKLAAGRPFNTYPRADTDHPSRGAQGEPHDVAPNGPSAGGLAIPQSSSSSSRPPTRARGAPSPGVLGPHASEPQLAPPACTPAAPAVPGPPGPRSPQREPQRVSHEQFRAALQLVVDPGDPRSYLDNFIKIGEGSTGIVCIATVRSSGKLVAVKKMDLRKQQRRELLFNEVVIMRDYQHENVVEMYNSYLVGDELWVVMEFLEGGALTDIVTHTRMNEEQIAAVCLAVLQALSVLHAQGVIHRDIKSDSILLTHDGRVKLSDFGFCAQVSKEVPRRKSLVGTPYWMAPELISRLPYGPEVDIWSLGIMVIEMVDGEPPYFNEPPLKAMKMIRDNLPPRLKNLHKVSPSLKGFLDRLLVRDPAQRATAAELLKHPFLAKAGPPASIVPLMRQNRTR
T8 sequence (Q13882 whole entry): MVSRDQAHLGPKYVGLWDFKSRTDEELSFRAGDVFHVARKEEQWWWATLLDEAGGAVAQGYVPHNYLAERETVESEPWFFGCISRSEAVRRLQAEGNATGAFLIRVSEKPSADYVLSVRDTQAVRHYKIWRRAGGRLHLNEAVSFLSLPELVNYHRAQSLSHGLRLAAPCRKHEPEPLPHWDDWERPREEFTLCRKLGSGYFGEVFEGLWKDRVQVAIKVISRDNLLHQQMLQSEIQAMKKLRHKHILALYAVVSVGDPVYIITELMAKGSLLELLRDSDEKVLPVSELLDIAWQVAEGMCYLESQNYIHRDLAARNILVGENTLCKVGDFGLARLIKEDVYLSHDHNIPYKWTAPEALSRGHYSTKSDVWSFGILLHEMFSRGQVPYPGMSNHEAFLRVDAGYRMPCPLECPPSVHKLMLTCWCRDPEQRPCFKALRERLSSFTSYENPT
T5 sequence (P15056 whole entry): as the sequence (P15056 whole entry V600E) above, with E600V counted along it

As usually defined, the inhibition is the drop in the measured response relative to a control, in per cent. As usually defined, the % Inhibition is the relative decrease from the control value, in per cent. High values mean a strong effect, low ones a weak effect. On to `NC(=O)c1ccc(-c2nc(-c3ccc4c(c3)OCCO4)c(-c3ccccn3)[nH]2)cc1` [D4476, 4-[4-(2,3-Dihydro-benzo[1,4]dioxin-6-yl)-5-pyridin-2-yl-1H-imidazol-2-yl]benzamide], for which the inhibition at 10 µM on CLK2 was below 50%; on FGFR3 it was below 50%; on CSNK1E it was 100%; at LCK, below 50%; against BRAF, below 50%; against STK4, below 50%. Also, the inhibition at 10 µM at PAK4, against PTK6 and against BRAF(V600E) was below 50% each time. Moreover, the “% Inhibition” value at CSNK1E (10 μM, CSNK1E (CK1ε isoform)) worked out at 100%.

For the compound `NC(=O)c1ccc(-c2nc(-c3ccc4c(c3)OCO4)c(-c3ccccn3)[nH]2)cc1` [SB431542, 4-(4-benzo-[1,3]dioxol-5-yl-5-pyridin-2-yl-1H-imidazol-2-yl)benzamide], the “inhibition of IL-8 production in neutrophils” value in experiment [1] is listed as “dose-dependent inhibition”. The inhibition at 10 µM on CLK2 is below 50%; on FGFR3 it was below 50%; at CSNK1E (10 μM, CSNK1E (CK1ε isoform), read-out: % Inhibition), 100%; on LCK it was below 50%; against STK4, below 50%; at PAK4 it was below 50%. At PTK6, this compound displayed an inhibition at 10 µM below 50%. Besides, the “% Inhibition” value on CSNK1E (10 μM, CSNK1E (CK1ε isoform)) was 100%. Further, the “production of IL-6” value in the experiment on inflammatory synovitis (mouse air pouch fluid) is on record as “inhibited”. For the same compound, the “production of MCP1” value in the experiment on inflammatory synovitis (mouse air pouch fluid) is “inhibited”. Besides, the neutrophil influx result in the experiment with inflammatory synovitis (mouse air pouch, compound injected into pouch) is “inhibited”.
